In patent US20240366624A1, “METHODS AND COMPOSITIONS FOR TREATING THROMBOTIC DISEASE” (Washington University, priority 2023, published 2024):

How the values were obtained:
[1] = molecular target: T1, MAO-A (monoamine oxidase A) (Homo sapiens, UniProt P21397); experiment: MAO-A activity assay; format: biochemical; details: 100 μM
T1 sequence (P21397 1-527): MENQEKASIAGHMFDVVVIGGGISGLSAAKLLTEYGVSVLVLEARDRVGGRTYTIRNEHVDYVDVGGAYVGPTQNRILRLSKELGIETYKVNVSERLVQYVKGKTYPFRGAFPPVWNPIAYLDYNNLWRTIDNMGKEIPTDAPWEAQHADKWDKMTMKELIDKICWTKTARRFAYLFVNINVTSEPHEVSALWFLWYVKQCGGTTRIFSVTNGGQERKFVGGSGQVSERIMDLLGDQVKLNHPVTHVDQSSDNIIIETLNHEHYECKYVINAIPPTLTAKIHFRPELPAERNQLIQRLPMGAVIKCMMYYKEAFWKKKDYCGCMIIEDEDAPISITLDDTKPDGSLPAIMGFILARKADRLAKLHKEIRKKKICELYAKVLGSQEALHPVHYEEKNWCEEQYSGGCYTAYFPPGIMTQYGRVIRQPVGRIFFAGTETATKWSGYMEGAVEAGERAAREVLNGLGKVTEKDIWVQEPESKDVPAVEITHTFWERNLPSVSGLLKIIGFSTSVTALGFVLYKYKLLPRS

[2] = H2O2 (antioxidant) activity assay; format: biochemical; details: 100 μM
From the text: (§1) FIG. 17(A-F) is an exemplary embodiment of identification of novel ERO1α inhibitors by high throughput screening in accordance with the present disclosure. FIG. 17A: A scheme of an ERO1α activity assay. FIG. 17B: Screening of chemical libraries in the ERO1α activity assay. FIG. 17C: The inhibitory effect of selected compounds on ERO1α activity. FIG. 17D: The inhibitory effect of selected compounds on PDI activity. FIG. 17E: The inhibitory effect of selected compounds on H2O2 activity. FIG. 17F: The inhibitory effect of selected compounds on thiol-reacting activity. The data represent the mean±SD (n=3). *P<0.05, **P<0.01, ***P<0.001, and ****P<0.0001 vs. vehicle control, Student's t-test.
(§2) To identify a novel ERO1α inhibitor, 5800 compounds were screened using an ERO1α activity assay (FIG. 17A and FIG. 17B). […] The selected compounds were further tested in assays measuring PDI, antioxidant, and thiol-reacting activities (FIG. 17D through FIG. 17F). […] B12 inhibited P-selectin exposure and αIIbβ3 activation in agonist-activated mouse and human platelets in a concentration-dependent manner (FIG. 18B through FIG. 18E).

[3] = molecular target: PDI (Homo sapiens, UniProt P07237); experiment: PDI activity assay; format: biochemical; details: 100 μM
From the text: as §1, §2

[4] = molecular target: T2, ERO1α (Homo sapiens, UniProt Q96HE7); experiment: ERO1α activity assay; format: biochemical; details: 20 μM
T2 sequence (Q96HE7 24-468): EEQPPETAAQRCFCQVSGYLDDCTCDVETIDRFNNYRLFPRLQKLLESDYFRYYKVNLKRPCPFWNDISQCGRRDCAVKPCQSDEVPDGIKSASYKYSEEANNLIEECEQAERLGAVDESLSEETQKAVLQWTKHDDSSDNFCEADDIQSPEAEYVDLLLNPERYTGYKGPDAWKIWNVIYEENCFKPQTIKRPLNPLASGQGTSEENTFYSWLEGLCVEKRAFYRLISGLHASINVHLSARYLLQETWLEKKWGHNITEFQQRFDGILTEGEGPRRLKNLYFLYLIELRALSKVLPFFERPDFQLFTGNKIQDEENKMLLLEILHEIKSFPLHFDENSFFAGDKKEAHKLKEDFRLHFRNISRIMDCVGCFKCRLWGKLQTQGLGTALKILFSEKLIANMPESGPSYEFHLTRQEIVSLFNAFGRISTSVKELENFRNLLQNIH
From the text: as §1, §2

[5] = thiol-reacting (GSH) activity assay; format: biochemical; details: 100 μM
From the text: as §1, §2

[6] = test system: Ero1α-null platelets; experiment: Platelet aggregation, Ero1α-null platelets; format: cell-based, mouse; details: 50 μg/mL protein, 0.025 U/mL thrombin
Method: FIG. 7(A-L) is an exemplary embodiment of crucial intracellular ERO1α (endoplasmic reticulum oxidoreductase 1a) for platelet activation, aggregation, and thrombus formation in accordance with the present disclosure. FIG. 7A: Ex vivo platelet thrombus formation in a flow chamber assay. Adherent and aggregated platelets were stained with rhodamine-conjugated phalloidin and imaged by confocal microscopy. Representative images (bar, 10 μm). Surface coverage and thrombus volume were measured (mean±SD, n=4). FIG. 7(B-E): Aggregation and ATP secretion of wild type (WT) and Ero1α-null platelets were induced by 0.025 U/mL thrombin, 0.05 μg/mL CRP (collagen-related peptide), 0.5 μM A23187, or 2.5 μM ADP. Platelet aggregation (i) and ATP secretion (ii). FIG. 7F: Ero1α-null platelets were pretreated with 50 μg/mL wtERO1α or wtPDI and then with 0.025 U/mL thrombin. Quantification graphs of aggregation and ATP secretion are presented as the mean±SD (n=3-4). FIG. 7G and FIG. 7H: P-selectin exposure and αIIbβ3 integrin activation of WT and Ero1α-null platelets were analyzed by flow cytometry. The data are presented as the geometric mean fluorescence intensity (MFI) value (mean±SD, n=3-4). FIG. 7I: WT and Ero1α-null platelets were treated with or without 0.025 U/mL thrombin for 1 minute in an aggregometer. The lysates were immunoprecipitated with control IgG or anti-β3 antibodies and subjected to immunoblotting with antibodies against talin1 or β3 and densitometric analysis (mean±SD, n=3). FIG. 7J: WT and Ero1α-null platelets were treated with or without 0.025 U/mL thrombin, followed by transmission electron microscopy. The original magnification was 34 800, and the extension was 313 000. Bar, 500 nm. FIG. 7K and FIG. 7L: Intravital microscopy was performed to determine the effect of 15E9 (1-3 μg/g body weight [BW]) and a blocking anti-PDI (protein disulfide isomerase) antibody (BD34, 3 μg/g BW) on platelet thrombus formation and fibrin generation at the site of laser-induced cremaster arteriolar injury (n=27-40 arterioles in 6 mice per group). The n indicates biological replicates. P values determined by unpaired Student t test (FIG. 7(A-E) and FIG. 7(G-1)), ANOVA and Dunnett test (FIG. 7F), or Mann-Whitney U test (FIG. 7K and FIG. 7L).
FIG. 9(A-C) is an exemplary embodiment of EN460 inhibiting thrombin-induced aggregation of mouse and human platelets in accordance with the present disclosure. […] P values determined by ANOVA and Dunnett's test (FIG. 9(A-B)) or Student's t-test (FIG. 9C).
FIG. 10(A-E) is an exemplary embodiment of 15E9 not affecting platelet activation and aggregation in accordance with the present disclosure. […] P values determined by unpaired Student's t-test (vs. mIgG1). […]

Sequence of PDI (P07237 18-508, species assumed): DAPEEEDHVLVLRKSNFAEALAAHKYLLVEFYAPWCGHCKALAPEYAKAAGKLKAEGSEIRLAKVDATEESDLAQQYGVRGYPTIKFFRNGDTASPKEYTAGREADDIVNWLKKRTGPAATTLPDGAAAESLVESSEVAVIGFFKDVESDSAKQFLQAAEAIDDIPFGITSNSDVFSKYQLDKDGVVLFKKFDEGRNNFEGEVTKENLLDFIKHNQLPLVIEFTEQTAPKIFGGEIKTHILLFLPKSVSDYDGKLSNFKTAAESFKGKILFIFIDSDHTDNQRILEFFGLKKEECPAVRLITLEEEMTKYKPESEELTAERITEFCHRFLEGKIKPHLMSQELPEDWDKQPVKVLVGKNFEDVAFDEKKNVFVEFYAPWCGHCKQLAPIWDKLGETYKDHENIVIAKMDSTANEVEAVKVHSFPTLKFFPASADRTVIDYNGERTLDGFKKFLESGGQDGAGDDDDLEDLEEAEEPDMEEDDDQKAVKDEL

MAO-A inhibition at 100 μM (%) [1] | PDI inhibition at 100 μM (%) [3] | ERO1α inhibition at 20 μM (%) [4] | Compound | H2O2 inhibition at 100 μM (%) [2] | GSH inhibition at 100 μM (%) [5] | rescue of the defect in Ero1α-null platelet aggregation [6]
37.5 ± 7% | 12.4 ± 5% | 83.9 ± 16% | COc1cc(O)nc(SCC(=O)N2c3ccccc3Sc3ccccc32)n1 [B12-18] | 0.2 ± 0.1% | 25.9 ± 5% | 
28.3 ± 5% | 21.4 ± 6% | 59.0 ± 6% | CCCn1c2ccccc2c2nnc(SCC(=O)N3c4ccccc4Sc4ccccc43)nc21 [B12-14] | 3.4 ± 1% | 31.9 ± 5% | 
28.1 ± 5% | 23.1 ± 5% | 82.3 ± 20% | Cc1nc2ccccc2nc1SCC(=O)N1c2ccccc2Sc2ccccc21 [B12-11] | 2.3 ± 1% | 33.5 ± 4% | 
34.3 ± 6% | 11.9 ± 3% | 11.5 ± 3% | CCCc1cc(O)nc(SCC(=O)N2c3ccccc3Sc3ccccc32)n1 [B12-16] | 80.0 ± 18% | 21.9 ± 6% | 
50.2 ± 7% | 6.7 ± 2% | 82.3 ± 15% | Cc1cc(O)nc(SCC(=O)N2c3ccccc3Sc3ccccc32)n1 [B12-20] | 2.3 ± 1% | 10.2 ± 2% | 
28.8 ± 6% | 38.5 ± 8% | 60.5 ± 8% | O=C(COc1nc2ccccc2s1)N1c2ccccc2Sc2ccccc21 [B12-22] | 4.9 ± 1% | 62.5 ± 7% | 
36.7 ± 8% | 19.1 ± 4% | 53.7 ± 9% | COc1ccc2nc(SCC(=O)n3c4ccccc4c4ccccc43)nc(C)c2c1 [B12-13*] | 4.2 ± 1% | 33.1 ± 4% | 

Second part, the compound before the results:

Compound | MAO-A inhibition at 100 μM (%) [1] | PDI inhibition at 100 μM (%) [3] | ERO1α inhibition at 20 μM (%) [4] | H2O2 inhibition at 100 μM (%) [2] | GSH inhibition at 100 μM (%) [5] | rescue of the defect in Ero1α-null platelet aggregation [6]
CCCn1c(SCC(=O)N2c3ccccc3Sc3ccccc32)nc2ccccc21 [B12-7] | 39.1 ± 8% | 30.3 ± 8% | 75.5 ± 20% | 1.9 ± 1% | 33.3 ± 10% | 
wtPDI: recombinant wild-type PDI |  |  |  |  |  | did not rescue
O=C(COc1ccccc1)N1c2ccccc2Sc2ccccc21 [B12-3] | 24.8 ± 4% | 10.2 ± 3% | 57.0 ± 19% | 2.1 ± 1% | 22.3 ± 7% | 
N#Cc1cc(SCC(=O)N2c3ccccc3Sc3ccccc32)nc2c1CCCC2 [B12-6] | 37.7 ± 8% | 20.2 ± 4% | 87.6 ± 17% | 1.7 ± 1% | 30.1 ± 10% | 
O=C(COc1ccc(O)cc1)N1c2ccccc2Sc2ccccc21 [B12-4] | 34.8 ± 4% | 13.2 ± 3% | 74.0 ± 17% | 6.0 ± 2% | 27.2 ± 7% | 
O=C(COc1nc2ccccc2s1)n1c2ccccc2c2ccccc21 [B12-8*] | 22.3 ± 5% | 8.6 ± 3% | 48.6 ± 10% | 0.3 ± 0.1% | 13.6 ± 3% | 
